Where two headings read alike, the source gives them in different places.
What was measured:
[1] = test system: P. falciparum NF54; assay: Antimalarial assay in vitro (3H-hypoxanthine microculture radioisotope technique); format: cell-based, Plasmodium falciparum; details: for IC50: Plasmodium falciparum, read-out: IC50 (µM) NF54; for SI L-6/NF54: selectivity index, quotient of L-6 cytotoxicity IC50 and NF54 IC50
Protocol: (§1) The drug sensitive strain of P. falciparum (NF54) was obtained from Schipol Airport, The Netherlands. […] L-6 cells were derived from rat skeletal myoblasts.
Antimalarial activity in vitro was determined by means of the microculture radioisotope technique which makes use of ^3H-hypoxanthine as an indicator of parasite viability. In this assay the drug sensitive NF54 strain was employed. Parasite cultures supplemented with HEPES (5.94 g/L), NaHCO3 (2.1 g/L), neomycin (100 U/mL), Albumax® (5 g/L) and washed human red cells A^+ at 2.5% haematocrit (0.3% parasitaemia) were incubated in RPMI 1640 medium without hypoxanthine and placed in the 96-well plates. Solutions of 4-(1H)-quinolone derivatives and the positive control chloroquine were dissolved in DMSO at 10 mg/mL and added to the first well followed by serial dilution to afford test concentrations ranging from 100 to 0.002 mg/L. After 48 h incubation at 37 °C, 4% CO2, 3% O2, 93% N2, ^3H-hypoxyanthine was added (0.5 µC/well) and then the plates were incubated further for 24 h under the same condition. The plates were freeze/thawed rapidly, harvested on glass fibre filters and dried. Radioactive hypoxanthine uptake was measured by scintillation counter. IC50 values were calculated from sigmoidal inhibition curves by linear regression using Microsoft Excel. Assays were carried out two times in triplicate.

[2] = test system: T. b. rhodesiense STIB 900 strain; assay: Antitrypanosomal assay in vitro (Alamar Blue); format: cell-based, Trypanosoma brucei rhodesiense; details: for IC50: Trypanosoma brucei, read-out: IC50 (µM) STIB900; for SI L-6/STIB900: selectivity index, quotient of cytotoxicity and antitrypanosomal IC50 values
Protocol: as §1
In vitro antitrypanosomal assay was carried out against the bloodstream form of T. b. rhodesiense STIB 900 strain using the Alamar Blue assay. The STIB 900 strain was suspended in fresh medium containing 1% MEM powder medium, MEM non-essential amino acids (100x) supplemented with 25 mM HEPES, additional glucose (1 g/L), 0.2 mM 2-mercaptoethanol, 1.0 mM sodium pyruvate and 15% heat inactivated horse serum. 50 µL (4 × 10^3 trypanosomes/mL) of this suspension was seeded in each well of the 96-well microtiter plate which contained test compounds and the positive control melarsoprol which were dissolved in DMSO and serially diluted to concentrations ranging from […]. The plates were incubated at 37 °C under 5% CO2 atmosphere for 70 h. Alamar Blue solution (10 µL) was added and incubation was continued for further 2–4 h. Plates were read with a Spectramax Gemini XS (Molecular Devices Cooperation, Sunnyvale, CA, USA) at EX/EM (536/588 nm). The IC50 values were calculated by linear regression from the sigmoidal dose inhibition curves using SoftmaxPro software. Tests were carried out two times in triplicate.

[3] = test system: rat skeletal muscle cell (L-6); assay: Cytotoxicity assay (Alamar Blue); format: cell-based; details: Myoblast, read-out: IC50 (µM) L-6
Protocol: as §1
96-well plates were seeded with 100 µL of RPMI 1640 medium supplemented with 1% L-glutamine and 10% fetal bovine serum, and rat skeletal muscle cell (L-6) (4 × 10^3/mL). The 4-(1H)-quinolone derivatives and the positive control podophyllotoxin were dissolved in DMSO and with a serial dilution ranging from […] were added into the wells in triplicate. The plates were incubated for 70 h and assessed microscopically for cell growth. Alamar Blue solution (10 µL) was then added to each well and incubation continued for 2 h before reading with a Spectramax Gemini XS at EX/EM 536/588. The IC50 values were calculated by linear regression from the sigmoidal dose inhibition curves using SoftmaxPro software. Tests were carried out two times in triplicate.

[4] = chloroquine sensitive strain P. falciparum NF54, 72 h total incubation
[5] = bloodstream form T. b. rhodesiense STIB 900, 70 h incubation
[6] = L-6 rat skeletal myoblasts, 70 h incubation

Compound | IC50 [1, 4] [µM] | SI L-6/NF54 [1] | IC50 [2, 5] [µM] | IC50 [3, 6] [µM] | SI L-6/STIB900 [2] | IC50 ([3]; Rattus norvegicus, 70 h) [µM] | IC50 ([1]; NF54, 72 h) [µM] | loss in potency compared to 29 ([1]; antimalarial potency, P. falciparum NF54, hydrogenation of the alkenyl chain of 29) [fold] | IC50 ([2]; 70 h) [µM]
CCCOc1ccc(/C=C/c2cc(=O)c3ccccc3n2CCBr)cc1 [Compound 10a, 1-(2-Bromoethyl)-2-[(1′E)-(4′′-propoxyphenyl)ethenyl]-4-(1H)-quinolone] | 1.58 | 16.45 | 1.25 | 25.8 |  |  |  |  | 
CCCCCCCCCCCC/C=C/c1cc(=O)c2ccccc2n1CCCC [Compound 18g] | 2.29 | 5.79 | 18.7 | 13.3 | 0.70 |  |  |  | 
COc1cc([C@@H]2c3cc4c(cc3[C@H](O)[C@H]3COC(=O)[C@H]23)OCO4)cc(OC)c1OC [Podophyllotoxin, reference compound] |  |  |  |  |  | 0.017 |  |  | 
CCCCCOc1ccc(/C=C/c2cc(=O)c3ccccc3n2CCBr)cc1 [Compound 11] | 1.56 | 27.11 | 3.82 | 42.4 | 11.10 |  |  |  | 
Cn1c(/C=C/CCCCCCCCCBr)cc(=O)c2ccccc21 [Compound 19] | 0.69 | 52.64 | 1.07 | 36.3 |  |  |  |  | 
Cn1c(CCCCC=C2CCCCCC2)cc(=O)c2ccccc21 [Compound 31] | 10.1 | 4.52 | 14.4 | 45.8 | 3.19 |  |  |  | 
CCN(CC)CCCC(C)Nc1ccnc2cc(Cl)ccc12 (stereo not drawn) [Chloroquine, reference compound] |  |  |  |  |  |  | 0.0063 |  | 
CCCCCCCCCCC#CCCc1cc(=O)c2ccccc2n1CC [Compound 36b] | 0.45 | 29.82 | 16.6 | 13.6 | 0.82 |  |  |  | 
CCCCCCCCCCCC/C=C/c1cc(=O)c2ccccc2n1CCC [Compound 18f] | 1.19 | 10.99 | 19.1 | 13 | 0.68 |  |  |  | 
Cn1c(-c2ccc(CCCCCCBr)cc2)cc(=O)c2ccccc21 [Compound 5a, 1-Methyl-2-[4′-(6′′-bromohexyl)phenyl]-4(1H)-quinolone] | 0.09 |  | 1.64 | 6.63 | 4.04 |  |  |  | 
CCCCCCCCCCC#CCCc1cc(=O)c2ccccc2n1C [Compound 36a] | 3.11 | 4.29 | 33.5 | 13.3 | 0.39 |  |  |  | 
CC1=C(/C=C/c2cc(=O)c3ccccc3n2CCBr)C(C)(C)CCC1 [Compound 21, 1-(2-Bromoethyl)-2-[(1′E)-2′-(2′′,6′′,6′′-trimethyl-1′′-cyclohexen-1′′-yl)ethenyl]-4-(1H)-quinol-one] | 1.99 | 16.65 | 8.85 | 33.2 | 3.76 |  |  |  | 
CCCOc1ccc(/C=C/c2cc(=O)c3cc(Cl)ccc3n2C)cc1 [Compound 10b, 6-Chloro-1-methyl-2-[(1′E)-(4′′-propoxyphenyl)ethenyl]-4-(1H)-quinolone] | 0.47 | 342.89 | 21.9 | 161 | 7.36 |  |  |  | 
CCCCCCCCCCCCC#Cc1cc(=O)c2ccccc2n1C [Compound 35] | 0.84 | 18.78 | 10.5 | 15.8 | 1.50 |  |  |  | 
CCCCCCCCCCCCCCCc1cc(=O)c2ccccc2n1C [Compound 30] | 6.4 | 15.91 | 42.4 | 101 | 2.39 |  |  | 16 | 
Nc1nc(N)nc(Nc2ccc([As]3SCC(CO)S3)cc2)n1 (stereo not drawn) [Melarsoprol, reference compound] |  |  |  |  |  |  |  |  | 0.0075
CCCCCC/C=C\CCc1cc(=O)c2ccccc2n1C [Compound 28] | 15.3 | 3.22 | 11 | 49.5 | 4.48 |  |  |  | 
C#CCn1c(/C=C/CCCCCCCCCCCC)cc(=O)c2ccccc21 [Compound 18d] | 4.64 | 5.32 | 24.5 | 24.7 | 1.01 |  |  |  | 
CCCCCCCCC/C=C/c1cc(=O)c2ccccc2n1C [Compound 18a] | 12.4 | 3.61 | 52.2 | 44.7 | 0.86 |  |  |  | 
CCCCCCCCCC/C=C/c1cc(=O)c2ccccc2n1CCBr [Compound 18b] | 2.3 | 16.69 | 8.28 | 38.4 | 4.63 |  |  |  | 
CN1CCN(CCCCCCCCC/C=C/c2cc(=O)c3ccccc3n2C)CC1 [Compound 20, 1-Methyl-2-[(1′E)-11′(N-methylpiperazinyl)undecenyl]-4-(1H)-quinolone] | 1.35 | 24.14 | 4.94 | 32.5 | 6.59 |  |  |  | 
C=CCn1c(/C=C/CCCCCCCCCCCC)cc(=O)c2ccccc21 [Compound 18e] | 0.31 | 45.78 | 8.18 | 14 | 1.71 |  |  |  | 
Cn1c(-c2ccc(CCCCCCCCCCN3CCCCC3)cc2)cc(=O)c2ccccc21 [Compound 5b, 1-Methyl-2-[4′-(10′′-piperidinyldecyl)phenyl]-4-(1H)-quinolone] | 0.82 | 11.73 | 3.41 | 9.63 | 2.83 |  |  |  | 
CCCCCCCCCC=CCCCCc1cc(=O)c2ccccc2n1C [Compound 29] | 0.39 | 33.84 | 10.8 | 13.2 |  |  |  |  | 

— publication PMC6271202, “1,2-Substituted 4-(1H)-Quinolones: Synthesis, Antimalarial and Antitrypanosomal Activities in Vitro” (Molecules, 2014)
